Assays:
[1] = test system: CCRF-CEM; assay: NCI screening platform one-dose single concentration screening, leukemia CCRF-CEM; format: cell-based, human; conditions: CCRF-CEM
[2] = test system: DU145; assay: NCI one-dose screening, prostate cancer DU145; format: cell-based, human; conditions: DU145, 10 μM
[3] = test system: UO-31; assay: NCI one-dose screening, renal cancer UO-31; format: cell-based, human; conditions: UO-31, 10 μM
[4] = test system: human tumor cell lines; assay: NCI one-dose screening, mean, delta and range of growth percent over all cell lines tested; format: cell-based
[5] = test system: MDA-MB-231/ATCC; assay: NCI one-dose screening, breast cancer MDA-MB-231/ATCC; format: cell-based, human; conditions: MDA-MB-231/ATCC
[6] = test system: SK-MEL-28; assay: NCI one-dose screening, melanoma SK-MEL-28; format: cell-based, human; conditions: SK-MEL-28, 10 μM
[7] = test system: MDA, -MB-435; assay: NCI one-dose screening, breast cancer MDA, -MB-435; format: cell-based, human; conditions: Melanoma, MDA-MB-435, 10 μM
[8] = test system: M14; assay: NCI one-dose screening, melanoma M14; format: cell-based, human; conditions: M14, 10 μM
[9] = test system: NCl/ADR-RES; assay: NCI one-dose screening, breast cancer NCl/ADR-RES; format: cell-based, human; conditions: Ovarian cancer, NCI/ADR-RES
[10] = test system: SN12C; assay: NCI one-dose screening, renal cancer SN12C; format: cell-based, human; conditions: SN12C
[11] = test system: HCT-15; assay: NCI one-dose screening, colon cancer HCT-15; format: cell-based, human; conditions: HCT-15, 10 μM
[12] = test system: HCC-2998; assay: NCI one-dose screening, colon cancer HCC-2998; format: cell-based, human; conditions: HCC-2998, 10 μM
[13] = test system: T-47D; assay: NCI one-dose screening, breast cancer T-47D; format: cell-based, human; conditions: T-47D
[14] = test system: MCF7; assay: NCI one-dose screening, breast cancer MCF7; format: cell-based, human; conditions: MCF7, 10 μM
[15] = test system: SNB-75; assay: NCI one-dose screening, CNS cancer SNB-75; format: cell-based, human; conditions: SNB-75, 10 μM
[16] = test system: LOX IMVI; assay: NCI one-dose screening, melanoma LOX IMVI; format: cell-based, human; conditions: LOX IMVI
[17] = test system: SF-539; assay: NCI one-dose screening, CNS cancer SF-539; format: cell-based, human; conditions: SF-539, 10 μM
[18] = test system: ACHN; assay: NCI one-dose screening, renal cancer ACHN; format: cell-based, human; conditions: ACHN
[19] = test system: A549/ATCC; assay: NCI one-dose screening, non-small cell lung cancer A549/ATCC; format: cell-based, human; conditions: A549/ATCC
[20] = test system: NCI-H23; assay: NCI one-dose screening, non-small cell lung cancer NCI-H23; format: cell-based, human; conditions: NCI-H23, 10 μM
[21] = test system: OVCAR-5; assay: NCI one-dose screening, ovarian cancer OVCAR-5; format: cell-based, human; conditions: OVCAR-5, 10 μM
[22] = test system: NCI-H322M; assay: NCI one-dose screening, non-small cell lung cancer NCI-H322M; format: cell-based, human
[23] = test system: MDA-MB-468; assay: NCI one-dose screening, breast cancer MDA-MB-468; format: cell-based, human; conditions: MDA-MB-468, 10 μM
[24] = test system: HOP-62; assay: NCI one-dose screening, non-small cell lung cancer HOP-62; format: cell-based, human; conditions: HOP-62, 10 μM
[25] = test system: SK-MEL-5; assay: NCI one-dose screening, melanoma SK-MEL-5; format: cell-based, human; conditions: SK-MEL-5, 10 μM
[26] = test system: COLO 205; assay: NCI one-dose screening, colon cancer COLO 205; format: cell-based, human; conditions: COLO 205, 10 μM
[27] = test system: HS 578-T; assay: NCI one-dose screening, breast cancer HS 578-T; format: cell-based, human
[28] = test system: NCI-H226; assay: NCI one-dose screening, non-small cell lung cancer NCI-H226; format: cell-based, human; conditions: NCI-H226, 10 μM
[29] = test system: PC-3; assay: NCI one-dose screening, prostate cancer PC-3; format: cell-based, human; conditions: PC-3, 10 μM
[30] = test system: 786-O; assay: NCI one-dose screening, renal cancer 786-O; format: cell-based, human; conditions: 786-0, 10 μM
[31] = test system: SNB-19; assay: NCI one-dose screening, CNS cancer SNB-19; format: cell-based, human; conditions: SNB-19, 10 μM
[32] = test system: CAKI-1; assay: NCI one-dose screening, renal cancer CAKI-1; format: cell-based, human; conditions: CAKI-1, 10 μM
[33] = test system: BT-549; assay: NCI one-dose screening, breast cancer BT-549; format: cell-based, human; conditions: BT-549, 10 μM
[34] = test system: MOLT-4; assay: NCI one-dose screening, leukemia MOLT-4; format: cell-based, human; conditions: MOLT-4, 10 μM
[35] = test system: OVCAR-3; assay: NCI one-dose screening, ovarian cancer OVCAR-3; format: cell-based, human; conditions: OVCAR-3, 10 μM
[36] = test system: HCT-116; assay: NCI one-dose screening, colon cancer HCT-116; format: cell-based, human; conditions: HCT-116, 10 μM
[37] = test system: OVCAR-8; assay: NCI one-dose screening, ovarian cancer OVCAR-8; format: cell-based, human; conditions: OVCAR-8, 10 μM
[38] = test system: NCI-H460; assay: NCI one-dose screening, non-small cell lung cancer NCI-H460; format: cell-based, human; conditions: NCI-H460, 10 μM
[39] = test system: SR; assay: NCI one-dose screening, leukemia SR; format: cell-based, human; conditions: SR
[40] = test system: UACC-257; assay: NCI one-dose screening, melanoma UACC-257; format: cell-based, human; conditions: UACC-257, 10 μM
[41] = test system: RXF, 393; assay: NCI one-dose screening, renal cancer RXF, 393; format: cell-based, human; conditions: RXF 393, 10 μM
[42] = test system: PC-3 prostate cancer cell line; assay: SRB assay cell viability, PC-3 prostate cancer cell line; format: cell-based, human; conditions: PC-3 prostate cancer cell line, Table II prints no unit, μM printed, read-out: SRB assay: 50% inhibition of cancer cell proliferation of sample concentration (IC50) of PC-3 prostate cancer cell line
[43] = test system: KM12; assay: NCI one-dose screening, colon cancer KM12; format: cell-based, human; conditions: KM12, 10 μM

## CN(C)CCNc1cc2c(c3nsnc13)C(=O)c1ccccc1C2=O [C8]
[1]
  Growth Percent (10 μM): −12.55%
[2]
  Growth Percent (10 μM): −95.45%
[3]
  Growth Percent (10 μM): −28.47%
[4]; Delta over all cell lines tested
  Growth Percent (10 μM), Delta: 49.51%
[4]; Mean over all cell lines tested
  Growth Percent (10 μM), Mean: −49.52%
[4]; Range over all cell lines tested
  Growth Percent (10 μM), Range: 112.33%
[5]
  Growth Percent (10 μM): −2.96%
[6]
  Growth Percent (10 μM): −50.60%
[7]
  Growth Percent (10 μM): −58.82%
[8]
  Growth Percent (10 μM): −96.08%
[9]
  Growth Percent (10 μM): −23.20%
[10]
  Growth Percent (10 μM): −95.78%
[11]
  Growth Percent (10 μM): −60.44%
[12]
  Growth Percent (10 μM): −86.18%
[13]
  Growth Percent (10 μM): 12.90%
[14]
  Growth Percent (10 μM): −49.41%
[15]
  Growth Percent (10 μM): −73.34%
[16]
  Growth Percent (10 μM): −90.91%
[17]
  Growth Percent (10 μM): −82.05%
[18]
  Growth Percent (10 μM): −22.86%
[19]
  Growth Percent (10 μM): −60.09%
[20]
  Growth Percent (10 μM): −43.43%
[21]
  Growth Percent (10 μM): −76.97%
[22]
  Growth Percent (10 μM): −56.32%
[23]
  Growth Percent (10 μM): −62.81%
[24]
  Growth Percent (10 μM): −67.97%
[25]
  Growth Percent (10 μM): −98.79%
[26]
  Growth Percent (10 μM): −99.38%
[27]
  Growth Percent (10 μM): 4.32%
[28]
  Growth Percent (10 μM): 69.78%
[29]
  Growth Percent (10 μM): −18.35%
[30]
  Growth Percent (10 μM): −14.05%
[31]
  Growth Percent (10 μM): −77.31%
[32]
  Growth Percent (10 μM): 6.88%
[33]
  Growth Percent (10 μM): −99.43%
[34]
  Growth Percent (10 μM): −41.28%
[35]
  Growth Percent (10 μM): −38.62%
[36]
  Growth Percent (10 μM): −2.07%
[37]
  Growth Percent (10 μM): −28.91%
[38]
  Growth Percent (10 μM): −38.31%
[39]
  Growth Percent (10 μM): −49.98%
[40]
  Growth Percent (10 μM): −88.80%
[41]
  Growth Percent (10 μM): −59.58%
[42]
  IC50: 0.4 µM
[43]
  Growth Percent (10 μM): −21.66%

Source: US8877748B2, “Heterocyclic fused anthraquinone derivatives, manufacturing method and pharmaceutical composition using thereof” (National Defense Medical Center, priority 2012, dated 2014)
